Consider 25 molecules from paper PMC9024523, “Phenoxyaromatic Acid Analogues as Novel Radiotherapy Sensitizers: Design, Synthesis and Biological Evaluation” (Molecules, 2022).

The test system of this assay is mouse red blood cells. In words: In vitro red blood cell-based assay (oxygen equilibrium curve, Softron analyzer). Conditions: final effector concentration 2 mM, mean ± SD; for P50/P50C: P50C = control with 1% DMSO; for P50: 1% DMSO; for P50 / ∆P50: mouse red blood cells; for ∆P50: ∆P50 = P50 − P50C. An excerpt:
In the first stage of our research, three series of analogues were designed and synthesized to explore refinement of the hydrophobic parts of 19f, 19m, 24a and 24b; hinge areas of 18g, 19b and 19y; and tail regions of 15c, 15d and 16c, respectively. We used the Softron Analyzer to evaluate the effect of these compounds on the half-blood oxygen saturation(P50) value of red blood cells. The most promising phenoxyaromatic acid compound, efaproxiral, was used as a positive control. […] The results reminded us that the modification of the hydrophobic part or linker extension is beneficial to improve an allosteric effect.
Eight-week-old female C57BL6J mice were purchased from Beijing Vital River Laboratory Animal Technology Co., Ltd. A total of 540 μL mouse blood was added into the 1.5 mL centrifuge tube, followed by adding 60 μL 3.8% sodium citrate. The mixture was then centrifuged at 1500 rpm for 10 min, the supernatant was carefully aspirated, and the cells were washed three times with PBS solution. After mixing packed red blood cells with Alsever’s solution in a ratio of 1:1, a blood gas analyzer (RADIOMETER ABL 90) was used to analyze the red blood cell density and hemoglobin concentration.
All of the compounds were prepared as 200 mM stock solutions in DMSO. Oxygen equilibrium measurements were performed with the Softron analyzer (Softron Medical Products, Beijing, China) using mouse red blood cells. The samples were prepared by adding 3 mg hemoglobin equivalent of red blood cells into 3.92 mL loading buffer (100 mM NaCl, 50 mM bis-Tris at pH 7.2 and 25 °C), followed by 20 μL 10% Dimethicone as a defoamer and 20 μL 20% BSA. Afterwards, 40 μL stock solution was added, and the mixture was loaded to the sample cell and fully deoxygenated by blowing into nitrogen at 37 °C for 15 min. Then, the oxygen equilibrium curve was recorded by blowing into oxygen.

Where “and” joins values, the source holds several entries; their conditions need not be identical. Equal values may be shown once.

In the case of `Cc1cc(C)cc(NC(=O)CCCc2ccc(OC(C)(C)C(=O)O)cc2)c1` [19d, 2-(4-(4-((3,5-dimethylphenyl)amino)-4-oxobutyl)phenoxy)-2-methylpropanoic acid], the P50/P50C amounted to 1.60 ± 0.02, the P50 is 67.93 ± 8.80 mmHg and the “∆P50” value is on record as 25.43 ± 3.71 mmHg.

As for `C=CCN(CC=C)C(=O)Cc1ccc(OC(C)(C)C(=O)O)cc1` [24a, 2-(4-(2-(diallylamino)-2-oxoethyl)phenoxy)-2-methylpropanoic acid], the P50/P50C is 1.25 ± 0.21, the P50 worked out at 55.80 ± 18.99 mmHg and the “∆P50” value worked out at 11.80 ± 11.11 mmHg.

In the case of `Cc1cc(C)cc(NCCc2ccc(OC(C)(C)C(=O)O)cc2)c1` [18g, 2-(4-(2-((3,5-dimethylphenyl)amino)ethyl)phenoxy)-2-methylpropanoic acid], the P50/P50C amounted to 1.86 ± 0.05; the P50 came out at 77.54 ± 6.96 mmHg; the “∆P50” value was 35.71 mmHg and 35.71 ± 2.14 mmHg.

For `CC(C)(Oc1ccc(CC(=O)Nc2ccccc2Br)cc1)C(=O)O` [19k, 2-(4-(2-((2-bromophenyl)amino)-2-oxoethyl)phenoxy)-2-methylpropanoic acid], the P50/P50C is on record as 1.34 ± 0.29, the P50 was 49.17 ± 10.7 mmHg and the “∆P50” value is listed as 12.36 ± 10.79 mmHg.

Regarding `COC(=O)C(Oc1ccc(CC(=O)Nc2cc(C)cc(C)c2)cc1)c1ccccc1` (centres unmarked) [15b, Methyl2-(4-(2-((3,5-dimethylphenyl)amino)-2-oxoethyl)phenoxy)-2-phenylacetate], the P50/P50C is 1.28 ± 0.19, the P50 was determined as 57.82 ± 8.69 mmHg and the “∆P50” value was 12.58 ± 8.69 mmHg.

As to `Cc1cccc(NC(=O)Cc2ccc(OC(C)(C)C(=O)O)cc2)c1Br` [19l, 2-(4-(2-((2-bromo-3-methylphenyl)amino)-2-oxoethyl)phenoxy)-2-methylpropanoic acid], the P50/P50C is 1.56 ± 0.04, the P50 is on record as 70.41 ± 1.68 mmHg and the “∆P50” value turned out to be 25.17 ± 1.68 mmHg.

For `Cc1cc(C)cc(NC(=O)Cc2ccc(OCCCC(=O)O)cc2)c1` [16a, 4-(4-(2-((3,5-dimethylphenyl)amino)-2-oxoethyl)phenoxy)butanoic acid], the P50/P50C worked out at 1.18 ± 0.04, the P50 was found to be 53.49 ± 1.85 mmHg and the “∆P50” value was 8.25 ± 1.85 mmHg.

Consider `COC(=O)C(C)(C)Oc1ccc(CC(=O)Nc2cc(C)cc(C)c2)cc1` [15c, Methyl2-(4-(2-((3,5-dimethylphenyl)amino)-2-oxoethyl)phenoxy)-2methylpropanoate], for which the P50/P50C is on record as 0.96 ± 0.26, the P50 turned out to be 43.28 ± 11.71 mmHg and the “∆P50” value is reported as −1.96 ± 11.71 mmHg.

Turning to `CC(C)(Oc1ccc(CC(=O)Nc2cccc(I)c2)cc1)C(=O)O` [19i, 2-(4-(2-((3-iodophenyl)amino)-2-oxoethyl)phenoxy)-2-methylpropanoic acid], the P50/P50C was 1.91 ± 0.13; the P50 came to 86.61 ± 6.04 mmHg; the “∆P50” value was 41.37 mmHg and 41.37 ± 6.04 mmHg.

On to `CC(C)(Oc1ccc(CC(=O)Nc2ccc3ccccc3c2)cc1)C(=O)O` [24d, 2-methyl-2-(4-(2-(naphthalen-2-ylamino)-2-oxoethyl)phenoxy)propanoic acid], for which the P50/P50C was 1.93 ± 0.01; the P50 came to 79.50 ± 0.47 mmHg; the “∆P50” value is 38.31 mmHg and 38.31 ± 0.47 mmHg.

For the molecule `Cc1cc(C)cc(NC(=O)c2ccc(OC(C)(C)C(=O)O)cc2)c1` [19b, 2-(4-((3,5-dimethylphenyl)carbamoyl)phenoxy)-2-methylpropanoic acid], the P50/P50C is on record as 1.04 ± 0.05, the P50 came out at 43.01 ± 2.18 mmHg and the “∆P50” value was determined as 1.82 ± 2.18 mmHg.

Turning to `CSc1cccc(NCCc2ccc(OC(C)(C)C(=O)O)cc2)c1` [18c, 2-methyl-2-(4-(2-((3-(methylthio)phenyl)amino)ethyl)phenoxy)propanoic acid], the P50/P50C is 1.28 ± 0.07, the P50 came to 48.61 ± 4.43 mmHg and the “∆P50” value came to 10.7 ± 2.95 mmHg.

On to `CCOC(=O)CCCOc1ccc(CC(=O)Nc2cc(C)cc(C)c2)cc1` [15a, Ethyl 4-(4-(2-((3,5-dimethylphenyl)amino)-2-oxoethyl)phenoxy)butanoate], for which the P50/P50C is given as 0.96 ± 0.25, the P50 turned out to be 43.55 ± 11.21 mmHg and the “∆P50” value is on record as −1.70 ± 11.21 mmHg.

For the molecule “2-(4-(2-((3-bromo-5-chlorophenyl)amino)ethyl)phenoxy)-2-methylpropanoic acid [18b]”, the P50/P50C is on record as 1.10 ± 0.03, the P50 worked out at 42.61 ± 2.15 mmHg, the “K (Hill coefficient of the oxygen dissociation curve at 50% saturation)” value is listed as 2.19 ± 0.01 and the “∆P50” value is 3.66 ± 0.88 mmHg.

With “7-(2-((3,5-dimethylphenyl)amino)-2-oxoethyl)-2,3-dihydrobenzo[b][1,4]dioxine-2-carboxylic acid [compound 20]”, the P50/P50C was 1.12 ± 0.06, the P50 was 47.11 ± 8.08 mmHg, the “K (Hill coefficient of the oxygen dissociation curve at 50% saturation)” value is listed as 2.39 ± 0.16 and the “∆P50” value stood at 5.27 ± 3.27 mmHg.

In the case of `CC(C)(Oc1ccc(CC(=O)Nc2cc(Br)cc(Br)c2)cc1)C(=O)O` [19h, 2-(4-(2-((3,5-dibromophenyl)amino)-2-oxoethyl)phenoxy)-2-methylpropanoic acid], the P50/P50C is 1.87 ± 0.03, the P50 is 68.71 ± 1.18 mmHg and the “∆P50” value is recorded as 31.90 ± 1.18 mmHg.

Regarding `CCCCCCNC(=O)Cc1ccc(OC(C)(C)C(=O)O)cc1` [24g, 2-(4-(2-(hexylamino)-2-oxoethyl)phenoxy)-2-methylpropanoic acid], the P50/P50C was 1.10 ± 0.04, the P50 is given as 46.17 ± 7.11 mmHg and the “∆P50” value was determined as 4.34 ± 2.30 mmHg.

Turning to `C#Cc1ccc(NC(=O)Cc2ccc(OC(C)(C)C(=O)O)cc2)cc1` [19n, 2-(4-(2-((4-ethynylphenyl)amino)-2-oxoethyl)phenoxy)-2-methylpropanoic acid], the P50/P50C amounted to 1.46 ± 0.02; the P50 is 60.34 ± 0.70 mmHg; the “∆P50” value was 19.15 mmHg and 19.15 ± 0.70 mmHg.

On to `CC1Cc2ccccc2N1C(=O)Cc1ccc(OC(C)(C)C(=O)O)cc1` (centres unmarked) [24b, 2-methyl-2-(4-(2-(2-methylindolin-1-yl)-2-oxoethyl)phenoxy)propanoic acid], for which the P50/P50C is given as 1.46 ± 0.12, the P50 was determined as 66.26 ± 5.30 mmHg and the “∆P50” value is listed as 21.02 ± 5.30 mmHg.

On to `COc1ccc(NC(=O)Cc2ccc(OC(C)(C)C(=O)O)cc2)cc1` [19s, 2-(4-(2-((4-methoxyphenyl)amino)-2-oxoethyl)phenoxy)-2-methylpropanoic acid], for which the P50/P50C is on record as 1.45 ± 0.01, the P50 is 71.87 ± 0.64 mmHg and the “∆P50” value turned out to be 22.29 ± 0.64 mmHg.

“(E)-2-(4-(3-((3-iodophenyl)amino)-3-oxoprop-1-en-1-yl)phenoxy)-2-methylpropanoic acid [19v]”: the P50/P50C stood at 1.71 ± 0.05, the P50 was determined as 77.49 ± 2.11 mmHg, the “K (Hill coefficient of the oxygen dissociation curve at 50% saturation)” value is 2.23 ± 0.28 and the “∆P50” value stood at 32.25 ± 2.11 mmHg.

Regarding “2-(4-(2-([1,1′-biphenyl]-4-ylamino)ethyl)phenoxy)-2-methylpropanoic acid [18e]”, the P50/P50C came out at 1.15 ± 0.37, the P50 is listed as 51.84 ± 16.79 mmHg, the “K (Hill coefficient of the oxygen dissociation curve at 50% saturation)” value amounted to 2.28 ± 0.28 and the “∆P50” value stood at 6.60 ± 16.79 mmHg.

As to “2-methyl-2-(4-(2-oxo-2-(o-tolylamino)ethyl)phenoxy)propanoic acid [19f]”, the P50/P50C is on record as 1.17 ± 0.04, the P50 came out at 53.78 ± 1.94 mmHg, the “K (Hill coefficient of the oxygen dissociation curve at 50% saturation)” value stood at 2.26 ± 0.11 and the “∆P50” value is listed as 7.72 ± 1.87 mmHg.

With `C#Cc1cccc(NCCc2ccc(OC(C)(C)C(=O)O)cc2)c1` [18d, 2-(4-(2-((3-ethynylphenyl)amino)ethyl)phenoxy)-2-methylpropanoic acid], the P50/P50C came out at 1.15 ± 0.05, the P50 was 52.25 ± 2.32 mmHg and the “∆P50” value is on record as 7.01 ± 2.32 mmHg.

With `C#Cc1cccc(NC(=O)Cc2ccc(OC(C)(C)C(=O)O)cc2)c1` [19n-1, 2-(4-(2-((3-ethynylphenyl)amino)-2-oxoethyl)phenoxy)-2-methylpropanoic acid], the P50/P50C amounted to 1.79 ± 0.04; the P50 was found to be 80.97 ± 1.77 mmHg; the “∆P50” value is 38.73 mmHg and 38.73 ± 2.47 mmHg.
